# Source: patent US9241942B2, “IRE-1α inhibitors” (MannKind Corporation, priority 2007, dated 2016)
# Tests used:
# human IRE-1α = human IRE-1α (Homo sapiens (Human), UniProt O75460); assay: IRE-1α assay: cleavage of mini-XBP-1 mRNA stem-loop substrate by GST-IRE-1α in vitro; type: biochemical; conditions: values in text
# Procedure: A fusion protein comprising glutathione S transferase (GST) and human IRE-1α (GST-IRE-1α) was obtained from a 500 ml baculovirus-infected insect cell culture and used to measure IRE-1α activity in vitro.
# Five μl of a reaction mixture comprising 1× reaction buffer (5× reaction buffer is 100 mM Hepes pH 7.5, 250 mM KOAc, 2.5 mM MgCl2), 3 mM DTT, and 0.4% polyethylene glycol water were added to each well of 384 well plates. Twenty-five nanoliters of a 1 mM test compound solution were added to test wells. […] Negative control wells contained only reaction mixture and test compound.
# The plates were again spun at 1200 rpm for 30 seconds.
# The plates were covered with lids and incubated for one hour at 30° C. The plates were then transferred to an ACQUEST™ microplate reader. Data was analyzed using data analysis software, and the percent activity of IRE-1α was calculated.
# RNase A = RNase A (Bos taurus (Bovine), UniProt P61823); assay: RNase A assay with mini-XBP-1 mRNA stem-loop substrate; type: biochemical; conditions: 2.5 μM test compound
# Procedure: RNase A was assayed as described for RNase T1. Final concentrations for the assay were: 63 nM substrate, 0.4 pg RNase A (Qiagen; 100 mg/ml or 7000 U/ml), and 2.5 μM test compound.
# RNase T1 = RNase T1 (Aspergillus oryzae (strain ATCC 42149 / RIB 40) (Yellow koji mold), UniProt P00651); assay: T1 RNase assay with mini-XBP-1 mRNA stem-loop substrate; type: biochemical; conditions: 2.5 μM test compound
# Procedure: T1 RNase was assayed as follows. Five μl of a reaction mixture comprising 1× reaction buffer (5× reaction buffer is 100 mM Hepes pH 7.5, 250 mM KOAc, 2.5 mM MgCl2), 3 mM DTT, and 0.4% polyethylene glycol water were added to each well of 384 well plates. Twenty-five nanoliters of a 1 mM test compound solution were added to test wells. Three μl of a 1/48,000 dilution of an approximately 200,000 U/ml RNase T1 (Worthington) preparation were added to each test well and to positive control wells (final concentration 49.5 pg/well). Negative control wells contained only reaction mixture and test compound.
# After spinning the plates at 1200 rpm for 30 seconds, 3 μl of the mini-XBP-1 mRNA stem-loop substrate described in Example 1 were added to each well of a control plate. The plates were again spun at 1200 rpm for 30 seconds. Final concentrations for the assay were: 63 nM substrate, 49.5 pg RNase T1, and 2.5 μM test compound.
# The plates were covered with lids and incubated for one hour at 30° C. The plates were then transferred to an ACQUEST™ microplate reader. Data was analyzed using data analysis software. The percent activity of RNase T1 was calculated.
# [1] = system: RPMI-8226 multiple myeloma cells; assay: Proliferation of multiple myeloma cells (CellTiter-Glo); type: cell-based, human; conditions: 24 hours, 100 μM to 0 μM
# Procedure: FIG. 5. Graph showing inhibition of proliferation of multiple myeloma cells by IRE-1α inhibitor 11-28 (Example 11). RPMI-8226 multiple myeloma cells were seeded at 20,000 cells per well in RPMI culture medium containing 1% FBS and the required antibiotics. The plate was incubated overnight at 37° C., 95% air, 5% CO2. The following day, compound 11-28 or medium alone was added to wells, resulting in a final volume of 100 μl per well. The compound concentration ranged from 100 μM to 0 μM, with compounds diluted by a factor of 4. After addition of compound, the plate was incubated at 37° C., 95% air, 5% CO2 for 24 hours. Cell proliferation was measured using the CellTiter-Glo assay (Promega), following the manufacturer's instructions.
# Proliferation assays using myeloma cell lines (U266, RPMI8226 and MM.1s) are used to determine ED50. Compounds are used as single agents and in combination with other chemotherapeutic drugs.
# primary murine B cells = assay: IgM secretion after LPS stimulation of primary B cells (ELISA); type: cell-based, mouse; conditions: added at beginning of stimulation and again at 24 hours, 20 μg/ml LPS, 48 hr
# Procedure: FIG. 9. Inhibition of IgM secretion after LPS stimulation of primary murine B cells with selected IRE-1α inhibitors. […] However, compounds had little effect when at added after 40 hours of stimulation; only slight inhibition at the highest dose. Methods were performed as previously described by Iwakoshi et al., Nature 4, 321-29, 2003 for B cell stimulation, plasma cell differentiation and IgM secretion. Primary B cells were Isolated from BALB/c splenocytes using mouse CD43 Microbeads (Miltenyi cat#130-049-801) with 1×10^6 cells per treatment. Purified B cells were stimulated in B Cell Media at a final density of 1×10^6/ml/well in 24-well plates with 20 μg/ml LPS (Sigma cat#L4391). IRE-1α inhibitor compound 17-1 was added at various concentrations (50 μM, 10 μM, 2 μM, 0.4 μM and 0.08 μM) at specified time points (t=0, t=24 hr, t=40 hr, etc.) Cells were incubated for 48 hr at 37° C. At end of the incubation, cells were spun in a plate at 1500 rpm/3 min. Supernatants were collected for quantitation for IgM secretion using a mouse IgM ELISA Kit (Bethyl Labs cat#E90-101). B Cell medium included RPMI+10% FBS supplemented with NEAA, HEPES, NaPyr, PSQ, and β-mercaptoethanol.
# [2] = system: phosphorylated IRE-1α and XBP1-splicing in RPMI8226 cells; assay: Western blot and RT-PCR of RPMI8226 cells after 24 hour treatment; type: cell-based, human
# Excerpt: FIG. 6. […] The numbers indicate the concentration of bortezomib in nM.
# Chain of RNase A (P61823 27-150): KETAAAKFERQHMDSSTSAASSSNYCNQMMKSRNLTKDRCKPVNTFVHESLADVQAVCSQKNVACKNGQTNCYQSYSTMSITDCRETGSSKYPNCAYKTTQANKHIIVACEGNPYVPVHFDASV
# Chain of RNase T1 (P00651 27-130): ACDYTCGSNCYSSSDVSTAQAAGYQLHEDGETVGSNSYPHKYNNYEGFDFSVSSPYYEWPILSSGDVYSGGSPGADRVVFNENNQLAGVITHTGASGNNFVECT
# Chain of human IRE-1α (O75460 19-977): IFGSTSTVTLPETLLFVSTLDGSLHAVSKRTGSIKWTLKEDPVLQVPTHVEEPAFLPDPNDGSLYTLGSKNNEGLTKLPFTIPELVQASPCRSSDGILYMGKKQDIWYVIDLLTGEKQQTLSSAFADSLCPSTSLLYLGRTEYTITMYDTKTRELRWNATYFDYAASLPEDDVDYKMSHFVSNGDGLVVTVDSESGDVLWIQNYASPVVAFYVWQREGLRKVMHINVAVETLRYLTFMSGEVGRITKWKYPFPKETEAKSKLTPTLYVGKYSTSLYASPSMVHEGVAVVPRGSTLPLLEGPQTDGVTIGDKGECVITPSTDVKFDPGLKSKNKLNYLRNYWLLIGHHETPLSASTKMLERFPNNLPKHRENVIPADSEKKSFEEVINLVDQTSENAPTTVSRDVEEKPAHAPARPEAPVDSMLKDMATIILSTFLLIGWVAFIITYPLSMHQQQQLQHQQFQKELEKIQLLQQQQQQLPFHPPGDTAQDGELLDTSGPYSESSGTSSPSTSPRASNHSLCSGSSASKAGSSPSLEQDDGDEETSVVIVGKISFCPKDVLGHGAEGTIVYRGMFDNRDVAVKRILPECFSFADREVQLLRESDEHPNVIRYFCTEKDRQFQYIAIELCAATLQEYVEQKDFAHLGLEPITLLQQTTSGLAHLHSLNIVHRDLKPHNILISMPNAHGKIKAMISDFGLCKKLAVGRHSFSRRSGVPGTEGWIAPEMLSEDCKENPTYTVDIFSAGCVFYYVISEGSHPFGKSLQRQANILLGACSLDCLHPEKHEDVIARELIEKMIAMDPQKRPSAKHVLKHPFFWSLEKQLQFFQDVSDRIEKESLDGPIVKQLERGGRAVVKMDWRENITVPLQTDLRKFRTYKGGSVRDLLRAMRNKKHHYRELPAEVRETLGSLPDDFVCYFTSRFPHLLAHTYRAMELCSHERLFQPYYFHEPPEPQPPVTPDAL
SMILES,selectivity for IRE-1 over RNase A (RNase A),selectivity for IRE-1 over T1 RNase (RNase T1),further results
"CCOc1cccc(C=O)c1O [3-ethoxy o-vanillin, 2-hydroxy-3-ethoxybenzaldehyde]",selective for IRE-1,selective for IRE-1,IC50 (human IRE-1α): 1000 nM
COc1ccc(Br)c(C=O)c1O [6-bromo o-vanillin],selective for IRE-1,selective for IRE-1,
COc1cc(-c2cccs2)cc(C=O)c1O [11-28],,,inhibition of proliferation [1]: inhibits the proliferation
"CN(C)C(=O)c1ccc(-c2ccc3c(C=O)c(O)ccc3c2)cc1 [17-1, 4-(5-formyl-6-hydroxynaphthalen-2-yl)-N,N-dimethylbenzamide]",,,IgM secretion (primary murine B cells): blocked IgM secretion at all doses tested down to 100 nM
"CC(C)C[C@H](NC(=O)[C@H](Cc1ccccc1)NC(=O)c1cnccn1)B(O)O [bortezomib, [(1R)-3-methyl-1-[[(2S)-1-oxo-3-phenyl-2-[(pyrazinylcarbonyl)amino]propyl]amino]butyl]boronic acid]",,,levels of phosphorylated IRE-1α and XBP1-splicing [2]: increases the levels of phosphorylated IRE-1α and XBP1-splicing
"COc1cccc(C=O)c1O [o-vanillin, 2-hydroxy-3-methoxybenzaldehyde]",selective for IRE-1,selective for IRE-1,
